Test results taken from ChEMBL document CHEMBL1129362 (J Med Chem, 1996).

Legend:
[1] = target: T1, Gastrin/cholecystokinin type B receptor (Homo sapiens, UniProt P32239); test: Binding affinity against human Cholecystokinin type B receptor by displacement of [125I]CCK-8
T1 sequence (P32239 whole entry): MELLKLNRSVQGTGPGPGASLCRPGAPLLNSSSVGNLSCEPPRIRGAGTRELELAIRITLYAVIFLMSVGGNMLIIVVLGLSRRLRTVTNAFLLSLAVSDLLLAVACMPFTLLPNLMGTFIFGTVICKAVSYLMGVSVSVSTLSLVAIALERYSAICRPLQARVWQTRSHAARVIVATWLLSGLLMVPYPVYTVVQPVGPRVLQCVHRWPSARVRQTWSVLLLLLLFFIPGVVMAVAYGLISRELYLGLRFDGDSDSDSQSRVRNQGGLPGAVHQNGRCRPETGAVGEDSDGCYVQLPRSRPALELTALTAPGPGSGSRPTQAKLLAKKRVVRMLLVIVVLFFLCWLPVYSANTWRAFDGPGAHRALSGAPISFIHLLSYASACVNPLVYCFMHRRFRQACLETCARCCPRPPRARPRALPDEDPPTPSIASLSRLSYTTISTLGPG

Cavia porcellus [2] = species on record: Cavia porcellus; test: Compound was tested for agonist activity of isolated guinea pig gallbladder by using functional assay; conditions: read-out: ED50 (the source's name)
Cavia porcellus [3] = species on record: Cavia porcellus; test: Relative efficacy determined as maximal contraction was observed at 30 uM standardized to CCK-8; format: functional
[4] = target: Cholecystokinin receptor (Homo sapiens) (UniProt P32239+P32238); test: Selectivity ratio between IC50 values of CCK-A and CCK-B; format: protein assay
[5] = target: T2, Cholecystokinin receptor type A (Homo sapiens, UniProt P32238); test: Binding affinity against human Cholecystokinin type A receptor by displacement of [125I]CCK-8
T2 sequence (P32238 whole entry): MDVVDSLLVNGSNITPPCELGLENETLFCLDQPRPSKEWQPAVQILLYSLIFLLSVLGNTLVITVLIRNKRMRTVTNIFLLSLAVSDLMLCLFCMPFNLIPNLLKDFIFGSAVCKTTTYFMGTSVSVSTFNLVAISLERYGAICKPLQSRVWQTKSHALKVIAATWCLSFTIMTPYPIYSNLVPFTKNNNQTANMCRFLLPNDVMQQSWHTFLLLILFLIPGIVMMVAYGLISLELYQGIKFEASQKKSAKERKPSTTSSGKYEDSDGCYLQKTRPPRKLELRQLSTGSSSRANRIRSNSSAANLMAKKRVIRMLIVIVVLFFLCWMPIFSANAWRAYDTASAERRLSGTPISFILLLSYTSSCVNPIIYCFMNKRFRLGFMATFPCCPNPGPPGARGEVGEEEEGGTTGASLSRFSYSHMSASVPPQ

Mus musculus [6] = test: In vivo percent emptying of mouse gallbladder when administered orally; format: functional
Mus musculus [7] = test: Effective dose against mouse gall bladder emptying when administered orally; format: functional; conditions: po
Mus musculus [8] = test: Effective dose against mouse gall bladder emptying when administered intraperitoneally; format: functional; conditions: ip
Mus musculus [9] = test: In vivo percent emptying of mouse gallbladder when administered intraperitoneally; format: functional
Cavia porcellus [10] = species on record: Cavia porcellus; test: Relative efficacy as determined maximal contraction was observed at 30 uM standardized to CCK-8; format: functional
Mus musculus [11] = test: Effective dose against mouse gallbladder emptying when administered intraperitoneally; format: functional
Mus musculus [12] = test: Effective dose against mouse gallbladder emptying when administered orally; format: functional

SMILES	IC50 [1]	EC50 (Cavia porcellus [2])	Max (Cavia porcellus [3])	Selectivity ratio [4]	IC50 [5]	other results
COc1ccc(N(C(=O)CN2C(=O)C(C)(Cc3c[nH]c4ccccc34)C(=O)N(c3ccccc3)c3ccccc32)C(C)C)cc1 (stereo unspecified)	17400 nM	530 nM	60%	2090	–	–
CC(C)N(C(=O)CN1C(=O)C(C)(Cc2c[nH]c3ccccc23)C(=O)N(c2ccccc2)c2ccccc21)c1ccccc1 (stereo unspecified)	–	470 nM	80%	–	107 nM	–
COc1ccc(N(C(=O)CN2C(=O)C(Cc3c[nH]c4ccccc34)C(=O)N(c3ccccc3)c3ccccc32)C(C)C)cc1 (stereo unspecified)	5250 nM	340 nM	70%	480	–	–
COc1ccc(N(C(=O)CN2C(=O)C(Cc3nn(C)c4ccccc34)C(=O)N(c3ccccc3)c3ccccc32)C(C)C)cc1 (stereo unspecified)	2400 nM	70 nM	90%	60	42.7 nM	–
CC(C)N(C(=O)CN1C(=O)C(C)(CC(=O)Nc2ccccc2)C(=O)N(c2ccccc2)c2ccccc21)c1ccccc1 (stereo unspecified)	–	190 nM	–	–	–	Empty (Mus musculus [6]): <70%; ED50 (Mus musculus [7]): 1 µmol/kg; ED50 (Mus musculus [8]): 0.03 µmol/kg; Empty (Mus musculus [9]): <70%; Max (Cavia porcellus [10]): 80%
COc1ccc(N(C(=O)CN2C(=O)C(Cc3n[nH]c4ccccc34)C(=O)N(c3ccccc3)c3ccccc32)C(C)C)cc1 (stereo unspecified)	–	109 nM	100%	50	–	ED50 (Mus musculus [11]): 0.2 nM·kg; ED50 (Mus musculus [12]): 8 nM·kg; Activity (Mus musculus [6]): <90%; Activity (Mus musculus [9]): <90%
CSCC[C@H](NC(=O)[C@H](Cc1ccc(OS(=O)(=O)O)cc1)NC(=O)[C@@H](N)CC(=O)O)C(=O)NCC(=O)N[C@@H](Cc1c[nH]c2ccccc12)C(=O)N[C@@H](CCSC)C(=O)N[C@@H](CC(=O)O)C(=O)N[C@@H](Cc1ccccc1)C(N)=O [SINCALIDE]	–	2 nM	–	–	–	ED50 (Mus musculus [8]): 3e-05 µmol/kg; Empty (Mus musculus [9]): <95%; Max (Cavia porcellus [10]): 100%
COc1ccc(N(C(=O)CN2C(=O)C(C)(Cc3n[nH]c4ccccc34)C(=O)N(c3ccccc3)c3ccccc32)C(C)C)cc1 (stereo unspecified)	69200 nM	320 nM	80%	5100	–	–
CC(C)N(C(=O)CN1C(=O)C(C)(Cc2n[nH]c3ccccc23)C(=O)N(c2ccccc2)c2ccccc21)c1ccccc1 (stereo unspecified)	2630 nM	20 nM	80%	20	120 nM	–
COc1ccc(N(C(=O)CN2C(=O)C(Cc3nn(Cc4ccccc4)c4ccccc34)C(=O)N(c3ccccc3)c3ccccc32)C(C)C)cc1 (stereo unspecified)	100000 nM	340 nM	–	–	309 nM	Max (Cavia porcellus [10]): 40%
CC(C)N(C(=O)CN1C(=O)C(Cc2n[nH]c3ccccc23)C(=O)N(c2ccccc2)c2ccccc21)c1ccccc1 (stereo unspecified)	178 nM	140 nM	90%	2	87.1 nM	–
